What was measured:
[1] = tested on: recRSV-L19FD489E-fireSMASh; type: cell-based
recRSV A2-L19F-renilla = assay: microbe, parasite or virus in culture; type: cell-based; settings: human respiratory syncytial virus; 0.5 μM concentration counterscreens; read-out: RSV inhibition
recRSV A2-L19F [2] = assay: microbe, parasite or virus in culture; type: cell-based
RSV F protein [3] = target: T1, RSV F protein (Human respiratory syncytial virus, UniProt P12568, E66K/H515N/I79M/K191R/N371Y/N80K/T101P/T357K/V557I); type: cell-based
T1 construct: expressed in transfected cells; host or cells: HEp-2 cells infected with recRSV A2-L19F-mKate2; F is expressed from the viral genome, not from a plasmid

recRSV A2-L19F-ren = type: cell-based; settings: GPAR-3710 added later than four hours post-infection; JMN3-003 added eight hours post-infection
RSV F protein [4] = target: T1, RSV F protein; type: cell-based; settings: plasmid-based reporter assay
recRSV A2-L19F [5] = type: cell-based; settings: increasing compound concentrations
[6] = tested on: recRSV-L19FD489E-fireSMASh; type: cell-based, Respiratory Syncytial Virus; settings: 10 μM; 96-well; BEAS-2B
[7] = tested on: host cell metabolic activity; settings: sourced compound

T1 sequence (P12568 137-574, looked up, stated change not applied): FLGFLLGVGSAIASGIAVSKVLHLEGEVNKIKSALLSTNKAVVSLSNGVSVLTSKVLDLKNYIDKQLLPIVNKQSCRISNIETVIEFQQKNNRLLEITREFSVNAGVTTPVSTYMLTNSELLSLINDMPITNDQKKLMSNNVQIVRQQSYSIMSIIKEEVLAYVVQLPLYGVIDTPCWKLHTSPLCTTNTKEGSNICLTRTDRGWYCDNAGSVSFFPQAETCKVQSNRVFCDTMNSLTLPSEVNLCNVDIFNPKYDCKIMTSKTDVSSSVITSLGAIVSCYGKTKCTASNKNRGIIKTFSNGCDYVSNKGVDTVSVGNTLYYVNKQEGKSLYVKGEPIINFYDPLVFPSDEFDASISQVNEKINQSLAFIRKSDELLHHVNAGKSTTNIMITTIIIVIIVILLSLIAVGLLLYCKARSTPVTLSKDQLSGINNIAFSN
T1 sequence (P12568 26-109, looked up, stated change not applied): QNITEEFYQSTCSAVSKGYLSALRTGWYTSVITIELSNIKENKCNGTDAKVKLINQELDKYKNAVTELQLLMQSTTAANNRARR

Compound	effect on progeny virus titers ([1]; 3 μM ASV)	reduction of firefly luciferase activity ([1]; growth in the presence of 3 μM ASV)	inhibition at 0.5 µM (recRSV A2-L19F-renilla)	active concentrations against different RSV strains (recRSV A2-L19F [2]; dose-dependent inhibition of different RSV strains)	EC50 (recRSV A2-L19F [2]; human respiratory syncytial virus, active concentration based on in vitro assays, RSV entry inhibitor)	adaptation period until robust resistance (growth in 30 μM compound) (RSV F protein [3]; gradual adaptation to increasing compound concentrations)	reported resistance sites (RSV F protein [3]; resistance sites in the RSV F protein, identified through viral adaptation)	antiviral activity in time-of-addition study (recRSV A2-L19F-ren)	RSV F protein-mediated membrane fusion activity (RSV F protein [4])	RSV entry rate (recRSV A2-L19F [5])	hit status in co-infection validation assay with pan-resistant RSV-FD489E [6]	cytotoxicity [7]
C=C[C@@H]1C[C@]1(NC(=O)[C@@H]1C[C@@H](Oc2ncc(OC)c3ccc(Cl)cc23)CN1C(=O)[C@@H](NC(=O)OC(C)(C)C)C(C)(C)C)C(=O)NS(=O)(=O)C1CC1 [ASV, asunaprevir]	no effect	approximately 90%	–	–	–	–	–	–	–	–	–	–
Cc1ccc(-n2c(SCC(=O)N/N=C/c3c4ccccc4cc4ccccc34)nnc2-c2ccccc2)cc1 [GPAR-3710]	–	–	> 90%	nano- to low micromolar range	0.13 µM	≤ 30 days	FT400A FD401E FD486E FF488I FF488S FD489E	essentially all antiviral activity was lost	specifically and potently inhibited	significant, dose-dependent reduction	did not emerge as hits	low cytotoxicity
